From patent US20230233538A1, “COMPOSITION FOR TREATING CORONAVIRUS DISEASE-19, COMPRISING PHENANTHROINDOLIZIDINE AND PHENANTHROQUI[…] DERIVATIVES, OPTICAL ISOMER THEREOF, OR PHARMACEUTICALLY ACCEPTABLE SALTS THEREOF AS ACTIVE INGREDIENT” (priority 2020, published 2023)
Read-outs that look alike come from different tables or passages of the source.

Legend:
[1] = test system: SARS-CoV-2; assay: microbe, parasite or virus in culture; format: cell-based; conditions: for EC50: read-out: Effective Concentration 50 (EC50), 50% virus proliferation inhibitory concentration
[2] = test system: Vero CCL-81 cells
[3] = in vitro; conditions: African green monkey, Cytotoxic Concentration 50 (CC50)
[4] = Severe acute respiratory syndrome coronavirus 2, 48 h

| Structure (SMILES) | fold greater effect (virus proliferation inhibitory ability) compared to Remdesivir [1] | EC50 [1, 4] [nM] | Selectivity Index (SI) [2] | CC50 [3] [nM] | EC50 [1] [nM] | CC50 ([2]; African green monkey) [nM] |
| --- | --- | --- | --- | --- | --- | --- |
| COc1cc2c3c(c4ccc(NS(C)(=O)=O)cc4c2cc1OC)CN1CCCC[C@@H]1C3 [Compound 2, (R)-N-(2,3-dimethoxy-11,12,13,14,14a,15-hexahydro-9H-dibenzo[f,h]pirido[1,2-b]isoquinolin-6-yl)methanesulfonamide] | ~1,700 fold | 13 | 10 | 126 |  |  |
| COc1ccc2c3c(c4cc(OC)c(OC)cc4c2c1)C[C@H]1CCCCN1C3 [cryptopleurin, reference compound] |  |  |  |  | 11 |  |
| COc1ccc2c3c(c4cc(OC)c(OC)cc4c2c1)C[C@H]1CCCN1C3 [antofine, reference compound] |  |  | 24 | 872 | 37 |  |
| COc1cc2c3c(c4ccc(NS(C)(=O)=O)cc4c2cc1OC)CN1CCC[C@@H]1C3 [Compound 1, (R)-N-(2,3-dimethoxy-9,11,12,13,13a,14-hexahydrodibenzo-[f,h]pyrrolo[1,2-b]isoquinolin-6-yl)methanesulfonamide] |  | 35 | 52 | 1820 |  |  |
| CCC(CC)COC(=O)[C@H](C)N[P@](=O)(OC[C@H]1O[C@@](C#N)(c2ccc3c(N)ncnn23)[C@H](O)[C@@H]1O)Oc1ccccc1 [Remdesivir, reference compound] |  | 22000 | 7.8 | 172000 | 22100 | 172000 |
| COC(=O)Nc1ccc2c3c(c4cc(OC)c(OC)cc4c2c1)CC1CCCCN1C3 (centres unmarked) [Compound 3, methyl(2,3-dimethoxy-11,12,13,14,14a,15-hexahydro-9H-dibenzo[f,h]pirido[1,2-b]isoquinolin-6-yl)carbamate] | ~1,300 fold | 17 | 19 | 317 |  |  |
